For 22 compounds, IC50 results are on record in patent US10329283B2, “G protein-coupled receptor kinase inhibitors and methods for use of the same” (THE REGENTS OF THE UNIVERSITY OF MICHIGAN, priority 2015, dated 2019).

pIC50: −log10 of the molar value. Where a name gives a salt, the structure may show the parent alone. Where only a bound is given, the exact number is not on record here.

Assay type in all cases: biochemical
What all share (settings): 50 nM GRK, 5 μM ATP, 500 nM bROS or tubulin, 5 min

One test deals with GRK5 (Homo sapiens, UniProt P34947). The test is described as follows: GRK5 kinetic assay for inhibition of GRKs (phosphorimaging). The procedure: (§1) The low salt concentration and DDM were used to maximize GRK activity and disrupt small molecule aggregates from forming, respectively. […] Data was analyzed and inhibition curves were fit via GraphPad Prism.
Sequence of GRK5 (P34947 whole entry, species assumed): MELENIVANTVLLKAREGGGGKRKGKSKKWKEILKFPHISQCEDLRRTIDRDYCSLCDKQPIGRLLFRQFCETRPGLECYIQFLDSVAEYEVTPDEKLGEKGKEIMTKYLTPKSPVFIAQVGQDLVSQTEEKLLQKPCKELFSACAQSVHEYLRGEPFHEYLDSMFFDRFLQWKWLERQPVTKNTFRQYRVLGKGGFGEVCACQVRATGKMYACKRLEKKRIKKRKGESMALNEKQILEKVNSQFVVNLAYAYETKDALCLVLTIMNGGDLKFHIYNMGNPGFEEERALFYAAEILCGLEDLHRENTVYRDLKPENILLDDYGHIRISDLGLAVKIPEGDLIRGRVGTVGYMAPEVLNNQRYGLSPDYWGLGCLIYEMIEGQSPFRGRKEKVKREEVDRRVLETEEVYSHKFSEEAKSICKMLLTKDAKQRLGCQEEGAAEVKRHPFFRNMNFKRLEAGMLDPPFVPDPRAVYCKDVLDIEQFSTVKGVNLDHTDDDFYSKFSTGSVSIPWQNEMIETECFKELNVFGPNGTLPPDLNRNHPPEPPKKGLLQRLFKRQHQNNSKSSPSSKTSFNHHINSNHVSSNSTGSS
In a further test the target is T1, GRK1 (Bos taurus, UniProt P28327).
T1 sequence (P28327 1-535 limits assumed): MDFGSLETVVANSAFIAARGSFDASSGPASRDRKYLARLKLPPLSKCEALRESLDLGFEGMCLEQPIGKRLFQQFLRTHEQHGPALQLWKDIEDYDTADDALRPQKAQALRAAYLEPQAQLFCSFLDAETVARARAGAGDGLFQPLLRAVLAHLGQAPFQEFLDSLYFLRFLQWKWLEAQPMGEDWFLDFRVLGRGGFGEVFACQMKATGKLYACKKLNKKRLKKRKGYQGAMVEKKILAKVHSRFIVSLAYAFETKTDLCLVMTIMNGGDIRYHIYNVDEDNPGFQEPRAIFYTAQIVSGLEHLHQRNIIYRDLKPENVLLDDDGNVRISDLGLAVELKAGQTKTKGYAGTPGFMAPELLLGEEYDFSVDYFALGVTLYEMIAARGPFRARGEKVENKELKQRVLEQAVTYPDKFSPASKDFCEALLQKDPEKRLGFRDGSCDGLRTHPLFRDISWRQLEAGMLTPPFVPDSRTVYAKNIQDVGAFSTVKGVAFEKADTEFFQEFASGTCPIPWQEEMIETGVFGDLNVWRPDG
The test is described as follows: GRK1 kinetic assay for inhibition of GRKs (phosphorimaging). The procedure: as §1

For the next test, the target named is T2, GRK2 (Homo sapiens, UniProt P25098).
T2 sequence (P25098 1-689): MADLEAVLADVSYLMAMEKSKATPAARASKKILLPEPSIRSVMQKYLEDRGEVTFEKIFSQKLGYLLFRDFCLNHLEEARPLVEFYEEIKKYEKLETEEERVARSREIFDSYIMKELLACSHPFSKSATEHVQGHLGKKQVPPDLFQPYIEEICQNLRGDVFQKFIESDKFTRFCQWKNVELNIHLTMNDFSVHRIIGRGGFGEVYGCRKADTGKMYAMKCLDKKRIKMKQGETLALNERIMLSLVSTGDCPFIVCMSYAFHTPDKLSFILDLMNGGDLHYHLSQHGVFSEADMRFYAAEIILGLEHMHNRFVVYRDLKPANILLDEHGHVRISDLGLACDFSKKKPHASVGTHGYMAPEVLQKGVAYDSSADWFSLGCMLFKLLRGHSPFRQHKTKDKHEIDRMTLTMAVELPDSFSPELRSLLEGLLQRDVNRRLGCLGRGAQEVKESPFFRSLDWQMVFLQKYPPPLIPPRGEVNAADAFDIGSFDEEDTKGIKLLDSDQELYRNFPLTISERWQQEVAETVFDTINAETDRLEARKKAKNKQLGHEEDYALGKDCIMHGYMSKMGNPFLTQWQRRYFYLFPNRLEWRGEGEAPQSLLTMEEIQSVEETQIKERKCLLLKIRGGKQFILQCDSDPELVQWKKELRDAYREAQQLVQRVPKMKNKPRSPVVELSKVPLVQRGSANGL
Put plainly: GRK2 kinetic assay for inhibition of GRKs (phosphorimaging). The procedure: as §1

Consider `O=C(NCCc1c[nH]cn1)c1cc([C@@H]2CCNC[C@H]2COc2ccc3c(c2)OCO3)ccc1F` [Example E28, N-(2-(1H-imidazol-4-yl)ethyl)-5-((3S,4R)-3-((benzo[d][1,3]dioxol-5-yloxy)methyl)piperidin-4-yl)-2-fluorobenzamide], for which, at GRK5, the pIC50 (commonly the IC50 on a negative log10 scale, so that one unit is a factor of ten) is below 4.00. For `Fc1ccc([C@@H]2CCNC[C@H]2COc2cc3cn[nH]c3cc2F)cc1` [Example E30, 6-fluoro-5-(((3S,4R)-4-(4-fluorophenyl)piperidin-3-yl)methoxy)-1H-indazole], the negative logarithm of the IC50 (pIC50) on GRK1 was 5.44; against GRK2, 6.85; against GRK5 it was 6.09. The matching figures for `COc1cccc(OC)c1CNC(=O)c1cc([C@@H]2CCNC[C@H]2COc2ccc3c(c2)OCO3)ccc1F` [Example E15, 5-((3S,4R)-3-((benzo[d][1,3]dioxol-5-yloxy)methyl)piperidin-4-yl)-N-(2,6-dimethoxybenzyl)-2-fluorobenzamide hydrochloride]: 4.66, 5.86 and below 4.00. The matching figures for `O=C(Cc1cc([C@@H]2CCNC[C@H]2COc2ccc3c(c2)OCO3)ccc1F)NCCc1c(F)cccc1F` [Example E02, 2-(5-((3S,4R)-3-((benzo[d][1,3]dioxol-5-yloxy)methyl)piperidin-4-yl)-2-fluorophenyl)-N-(2,6-difluorophenethyl)acetamide hydrochloride]: 4.02, 6.38 and below 4.00.

As for `Cc1cccc(C)c1CNC(=O)c1cc([C@@H]2CCNC[C@H]2COc2ccc3c(c2)OCO3)ccc1F` [Example E13, 5-((3S,4R)-3-((benzo[d][1,3]dioxol-5-yloxy)methyl)piperidin-4-yl)-N-(2,6-dimethylbenzyl)-2-fluorobenzamide hydrochloride], the negative-log IC50 (pIC50) against GRK1 was 4.95; at GRK2, 6.00; on GRK5, 4.25.

`O=C(Cc1cc([C@@H]2CCNC[C@H]2COc2ccc3c(c2)OCO3)ccc1F)NCCc1cn[nH]c1` [Example E04, N-(2-(1H-pyrazol-4-yl)ethyl)-2-(5-((3S,4R)-3-((benzo[d][1,3]dioxol-5-yloxy)methyl)piperidin-4-yl)-2-fluorophenyl)acetamide hydrochloride]: the pIC50 against GRK2 was 6.21; on GRK5, below 4.00. The matching figures for `O=C(NCc1ccccn1)c1cc([C@@H]2CCNC[C@H]2COc2ccc3c(c2)OCO3)ccc1F` [Example E07, 5-((3S,4R)-3-((benzo[d][1,3]dioxol-5-yloxy)methyl)piperidin-4-yl)-2-fluoro-N-(pyridin-2-ylmethyl)benzamide hydrochloride]: 6.36 and 4.82.

On to `O=C(Cc1cc([C@@H]2CCNC[C@H]2COc2ccc3c(c2)OCO3)ccc1F)NCc1c(F)cccc1F` [Example E01, 2-(5-((3S,4R)-3-((benzo[d][1,3]dioxol-5-yloxy)methyl)piperidin-4-yl)-2-fluorophenyl)-N-(2,6-difluorobenzyl)acetamide hydrochloride], for which the pIC50 against GRK1 is below 4.00; against GRK2, 5.60; at GRK5 it was below 4.00. In the case of `O=C(NCc1ccncc1)c1cc([C@@H]2CCNC[C@H]2COc2ccc3c(c2)OCO3)ccc1F` [Example E22, 5-((3S,4R)-3-((benzo[d][1,3]dioxol-5-yloxy)methyl)piperidin-4-yl)-2-fluoro-N-(pyridin-4-ylmethyl)benzamide], the pIC50 against GRK5 is below 4.00.

As to `COc1ccccc1CNC(=O)c1cc([C@@H]2CCNC[C@H]2COc2ccc3c(c2)OCO3)ccc1F` [Example E09, 5-((3S,4R)-3-((benzo[d][1,3]dioxol-5-yloxy)methyl)piperidin-4-yl)-2-fluoro-N-(2-methoxybenzyl)benzamide hydrochloride], the results for the pIC50 at GRK2 and against GRK5 were 4.31 and below 4.00, respectively. The compound `O=C(NCCc1ccncc1)c1cc([C@@H]2CCNC[C@H]2COc2ccc3c(c2)OCO3)ccc1F` [Example E24, 5-((3S,4R)-3-((benzo[d][1,3]dioxol-5-yloxy)methyl)piperidin-4-yl)-2-fluoro-N-(2-(pyridin-4-yl)ethyl)benzamide] gave a pIC50 at GRK5 below 4.00. On the same count and under the same terms, then `O=C(NCc1ccccc1)c1cc([C@@H]2CCNC[C@H]2COc2ccc3c(c2)OCO3)ccc1F` [Example E19, 5-((3S,4R)-3-((benzo[d][1,3]dioxol-5-yloxy)methyl)piperidin-4-yl)-N-benzyl-2-fluorobenzamide], with 4.07. Still for that read-out and setting: with `O=C(NCCc1cccnc1)c1cc([C@@H]2CCNC[C@H]2COc2ccc3c(c2)OCO3)ccc1F` [Example E25, 5-((3S,4R)-3-((benzo[d][1,3]dioxol-5-yloxy)methyl)piperidin-4-yl)-2-fluoro-N-(2-(pyridin-3-yl)ethyl)benzamide] the figure was below 4.00; with `O=C(NCc1ncc[nH]1)c1cc([C@@H]2CCNC[C@H]2COc2ccc3c(c2)OCO3)ccc1F` [Example E27, N-((1H-imidazol-2-yl)methyl)-5-((3S,4R)-3-((benzo[d][1,3]dioxol-5-yloxy)methyl)piperidin-4-yl)-2-fluorobenzamide], 4.83. Regarding `O=C(NCCc1cn[nH]c1)c1cc([C@@H]2CCNC[C@H]2COc2ccc3c(c2)OCO3)ccc1F` [Example E08, N-(2-(1H-pyrazol-4-yl)ethyl)-5-((3S,4R)-3-((benzo[d][1,3]dioxol-5-yloxy)methyl)piperidin-4-yl)-2-fluorobenzamide hydrochloride], the negative-log IC50 (pIC50) against GRK2 is 5.76; on GRK5, below 4.00. As for `O=C(NCc1ccccc1C(F)(F)F)c1cc([C@@H]2CCNC[C@H]2COc2ccc3c(c2)OCO3)ccc1F` [Example E10, 5-((3S,4R)-3-((benzo[d][1,3]dioxol-5-yloxy)methyl)piperidin-4-yl)-2-fluoro-N-(2-(trifluoromethyl)benzyl)benzamide hydrochloride], the negative-log IC50 (pIC50) against GRK2 was 4.90; on GRK5, 4.21. `O=C(NCCc1ccccc1)c1cc([C@@H]2CCNC[C@H]2COc2ccc3c(c2)OCO3)ccc1F` [Example E20, 5-((3S,4R)-3-((benzo[d][1,3]dioxol-5-yloxy)methyl)piperidin-4-yl)-2-fluoro-N-phenethylbenzamide] gave a pIC50 against GRK5 below 4.00. Still for that read-out and setting: then `O=C(NCCc1ccccn1)c1cc([C@@H]2CCNC[C@H]2COc2ccc3c(c2)OCO3)ccc1F` [Example E23, 5-((3S,4R)-3-((benzo[d][1,3]dioxol-5-yloxy)methyl)piperidin-4-yl)-2-fluoro-N-(2-(pyridin-2-yl)ethyl)benzamide], with below 4.00.

On to `COc1ccccc1CNC(=O)Cc1cc([C@@H]2CCNC[C@H]2COc2ccc3c(c2)OCO3)ccc1F` [Example E06, 2-(5-((3S,4R)-3-((benzo[d][1,3]dioxol-5-yloxy)methyl)piperidin-4-yl)-2-fluorophenyl)-N-(2-methoxybenzyl)acetamide hydrochloride], for which the results for the negative logarithm of the IC50 (pIC50) against GRK2 and against GRK5 were 6.19 and below 4.00, respectively. `O=C(NCc1c(F)cccc1F)c1cc([C@@H]2CCNC[C@H]2COc2ccc3c(c2)OCO3)ccc1F` [Example E11, 5-((3S,4R)-3-((benzo[d][1,3]dioxol-5-yloxy)methyl)piperidin-4-yl)-N-(2,6-difluorobenzyl)-2-fluorobenzamide hydrochloride] showed a negative logarithm of the IC50 (pIC50) against GRK5 of 4.34. In the case of `O=C(NCc1cccnc1)c1cc([C@@H]2CCNC[C@H]2COc2ccc3c(c2)OCO3)ccc1F` [Example E21, 5-((3S,4R)-3-((benzo[d][1,3]dioxol-5-yloxy)methyl)piperidin-4-yl)-2-fluoro-N-(pyridin-3-ylmethyl)benzamide], the pIC50 on GRK5 was 4.12. `O=C(Cc1cc([C@@H]2CCNC[C@H]2COc2ccc3c(c2)OCO3)ccc1F)NCCc1ccccn1` [Example E03, 2-(5-((3S,4R)-3-((benzo[d][1,3]dioxol-5-yloxy)methyl)piperidin-4-yl)-2-fluorophenyl)-N-(2-(pyridin-2-yl)ethyl)acetamide hydrochloride]: the pIC50 against GRK2 is 5.44; at GRK5 it was below 4.00.
